According to PMC3630091, “A Mechanistic Paradigm for Broad-Spectrum Antivirals that Target Virus-Cell Fusion” (PLoS Pathogens, 2013):
Read-outs that look alike come from different tables or passages of the source.

Assays:
[1] = Singlet oxygen quenching measurements; format: physicochemical; details: 355 nm with C60 as external sensitizer; error is one standard deviation
Ad5 = format: cell-based, Adenovirus serotype 5; details: non-enveloped virus; 10 min white light exposure of treated virus
[2] = Singlet oxygen quantum yield measurements; format: physicochemical
RVFV = test: microbe, parasite or virus in culture; format: cell-based, Rift Valley fever MP-12 (vaccine strain); details: Rift Valley fever virus, 10 min, read-out: IC50 RVFV
VSV = test: microbe, parasite or virus in culture; format: cell-based; details: Vesicular stomatitis virus, 10 min, read-out: IC50 VSV
RABV = test: microbe, parasite or virus in culture; format: cell-based; details: Lyssavirus rabies, 10 min, read-out: IC50 RABV
CMV = test: microbe, parasite or virus in culture; format: cell-based, Cytomegalovirus (strain T3259)
RVFV ZH501 = format: in vivo, Balb/c mice
SFV = test: microbe, parasite or virus in culture; format: cell-based; details: Semliki Forest virus, BHK, 10 min, read-out: IC50 SFV
H1N1 = test: microbe, parasite or virus in culture; format: cell-based, Influenza A A/PR/8/34 (H1N1); details: read-out: IC50 H1N1
[3] = Absorbance spectra / UV-visible spectra integration; format: physicochemical
[4] = Membrane partition into HIV membrane-like mixture LUV (fluorescence)
HIV = test: microbe, parasite or virus in culture; format: cell-based; details: Human immunodeficiency virus 1, 10 min
NiV = test: microbe, parasite or virus in culture; format: cell-based, Nipah virus Malaysia
HSV = test: microbe, parasite or virus in culture; format: cell-based, Herpes simplex virus-1; details: Human alphaherpesvirus 1, 10 min
HIV-1JR-CSF = format: cell-based
[5] = Clinical observations after single dose in PK study; format: in vivo, female Balb/c mice; details: single dose 10 mg/kg ip
Description: Dose administration. […] These mice were replaced and the dose level was reduced to 5 mg/kg. […] Hypoactivity was the only clinical observation noted in some of the mice treated with the 3 test articles at 10 and 100 mg/kg po. […] These animals were replaced and administered with the lower ip dose level of 1.25 mg/kg and underwent blood collections. Mice received single ip doses of 1.25 mg/kg (JL109 and JL118) or 5 mg/kg (JL122) and po doses of 10 mg/kg (JL109, JL118, JL122), 50 mg/kg (JL109, JL118), or 100 mg/kg (JL109, JL118, JL122).

NDV = test: microbe, parasite or virus in culture; format: cell-based, Newcastle disease virus; details: avian paramyxovirus 1, 10 min
EBOV = test: microbe, parasite or virus in culture; format: cell-based, Ebola Zaire; details: Zaire ebolavirus, 10 min, read-out: IC50 EBOV
[6] = Membrane partition into POPC LUV (fluorescence)
Pharmacokinetics in mice = details: for bioavailability: female, Balb/c, mouse, in vivo
HeV = test: microbe, parasite or virus in culture; format: cell-based, Hendra virus; details: Henipavirus hendraense, 10 min, read-out: IC50 HeV
in vitro = details: human

SMILES: CCN1C(=S)O/C(=C\c2ccc(-c3ccccc3OC)o2)C1=S [JL103, (Z) 3-Ethyl-5-[5-(2-methoxyphenyl)-furan-2-ylmethylene]oxazolid-ine-2,4-dithione]
- kT × 10-7 [1]: 0.636 ± 0.030 M-1s-1
- IC50 Ad5 (Ad5): inactive
- QY at 355 nm, times higher than LJ001 ([2]; 355 nm): about 2 times
- 1O2 QY 355 nm ([2]; in CD2Cl2, excitation 355 nm, error is one standard deviation): 0.36 ± 0.02
- 1O2 QY 532 nm ([2]; in CD2Cl2, excitation 532 nm, error is one standard deviation): 0.30 ± 0.03
- IC50 (RVFV): 3 nM
- IC50 (VSV): 11 nM
- IC50 (RABV): 260 nM
- IC50 (CMV; Human betaherpesvirus 5, 10 min, read-out: IC50 CMV, 10 min white light exposure of treated virus): 5 nM
- IC50 (CMV; read-out: IC50 CMV, 10 min white light exposure of treated virus): 4 nM
- time-to-death / survival compared to untreated controls (RVFV ZH501; 20 pfu RVFV ZH501 IP, IP once a day for 7 days from 1 h post-challenge, JL118 1.25 mg/kg, JL122 and JL103 10 mg/kg): no significant effect on survival
- Median survival (RVFV ZH501; 50 pfu RVFV ZH501 IP, 10 mg/kg IP at 1, 12, 24 and 48 h post-challenge, n = 5): 3 days
- IC50 (SFV): 44 nM
- IC50 (H1N1; Influenza A virus, H1N1, 10 min): 1.7 nM
- IC50 (H1N1): 2 nM
- Abs Max (λmax) ([3]; 100 µM in DMSO): 515 nm
- AUC (400-750 nm) ([3]; integrated absorption divided by concentration, normalized relative to LJ001 (LJ001 = 100)): 153
- total integrated absorption (AUC), times that of LJ001 ([3]; λ = 400 to 750 nm): 1.53 times
- Kp at 10 min, 50 µM [4]: 310
- IL / Iw ([4]; HIV-like mixture LUV, fluorescence intensity ratio from curve fitting): 68.29
- IC50 (HIV; read-out: IC50 HIV): 13 nM
- IC50 (HIV; read-out: IC50 ± SD (nM) (N=x) HIV): 12.2 ± 9.7 nM
- IC50 (NiV; Henipavirus nipahense, 10 min, read-out: IC50 NiV, 10 min white light exposure of treated virus): 3.9 nM
- IC50 (NiV; read-out: IC50 NiV, 10 min white light exposure of treated virus): 4 nM
- IC50 (HSV; read-out: IC50 HSV): 2 nM
- IC50 (HSV; read-out: IC50 ± SD (nM) (N=x) HSV): 1.9 ± 2.5 nM
- reduction of antiviral activity at physiological Hct (HIV-1JR-CSF): > 50%
- clinical observations [5]: appeared normal
- IC50 (NDV; read-out: IC50 NDV): 4 nM
- IC50 (NDV; read-out: IC50 ± SD (nM) (N=x) NDV): 5.7 ± 6.4 nM
- IC50 (EBOV): 185 nM
- Kp at 10 min, 50 µM [6]: 580
- IL / Iw ([6]; POPC LUV, fluorescence intensity ratio from curve fitting): 14.78
- bioavailability (Pharmacokinetics in mice; ip, 10 mg/kg): ~50%
- bioavailability (Pharmacokinetics in mice; po, 100 mg/kg): 3.1 to 105%
- improvements in relevant pharmacokinetic (PK) parameters compared to LJ001 (Pharmacokinetics in mice; half-life, AUC, bioavailability, clearance): > 10 fold
- IC50 (HeV): 0.5 nM
- CC50 (in vitro): 9140 nM
